How the values were obtained:
Type in all cases: functional, cell-based
HL-60 = test: Cytotoxicity against human HL60 cells assessed as decrease in cell viability after 4 days by MTT assay; conditions: HL-60, 96 h
SMMC-7721 = test: Cytotoxicity against human SMMC7721 cells assessed as decrease in cell viability after 4 days by MTT assay; conditions: SMMC-7721, 96 h
A549 = test: Cytotoxicity against human A549 cells assessed as decrease in cell viability after 4 days by MTT assay; conditions: A549, 96 h
MCF7 = test: Cytotoxicity against human MCF7 cells assessed as decrease in cell viability after 4 days by MTT assay; conditions: MCF7, 96 h
SW480 = test: Cytotoxicity against human SW480 cells assessed as decrease in cell viability after 4 days by MTT assay; conditions: SW480, 96 h

Row | SMILES | IC50 (HL-60) | IC50 (SMMC-7721) | IC50 (A549) | IC50 (MCF7) | IC50 (SW480)
1 | Cc1ccc(-c2cn(C[C@H]3c4c(ccc(O)c4C)[C@@H]4CC[C@@]5(C)C[C@]43CC5=O)nn2)cc1 | > 20 µM | > 20 µM | > 20 µM | > 20 µM | > 20 µM
2 | C=C1C[C@]23C[C@@]1(O)CC[C@H]2c1ccc(OS(=O)(=O)c2ccc(C)cc2)c(C)c1[C@@H]3Cn1cc(-c2ccccc2)nn1 | > 20 µM | > 20 µM | > 20 µM | > 20 µM | > 20 µM
3 | C=C1C[C@]23C[C@@]1(O)CC[C@H]2c1ccc(O)c(C)c1[C@@H]3Cn1cc(-c2ccc(C)cc2)nn1 | > 20 µM | > 20 µM | > 20 µM | > 20 µM | > 20 µM
4 | C=C1C[C@]23C[C@@]1(O)CC[C@H]2c1ccc(OS(=O)(=O)c2ccc(C)cc2)c(C)c1[C@@H]3Cn1cc(-c2ccc(C)cc2)nn1 | > 20 µM | > 20 µM | > 20 µM | > 20 µM | > 20 µM
5 | C=C1C[C@]23C[C@@]1(O)CC[C@H]2c1ccc(O)c(C)c1[C@@H]3Cn1cc(-c2ccccn2)nn1 | > 20 µM | > 20 µM | > 20 µM | > 20 µM | > 20 µM
6 | C=C1C[C@]23C[C@@]1(O)CC[C@@H]2c1cccc(C)c1[C@@H]3Cn1cc(-c2ccc(Br)cc2)nn1 | > 20 µM | > 20 µM | > 20 µM | > 20 µM | > 20 µM
7 | C=C1C[C@]23C[C@@]1(O)CC[C@H]2c1cc(Br)c(O)c(C)c1[C@@H]3Cn1cc(-c2ccc(C)cc2)nn1 | > 20 µM | > 20 µM | > 20 µM | > 20 µM | > 20 µM
8 | Cc1c(O)ccc2c1[C@H](Cn1cc(-c3ccc(C(F)(F)F)cc3)nn1)[C@@]13CC(=O)[C@@](C)(CC[C@@H]21)C3 | > 20 µM | > 20 µM | > 20 µM | > 20 µM | > 20 µM
9 | Cc1ccc(-c2cn(C[C@H]3c4c(ccc(OS(=O)(=O)c5ccc(C)cc5)c4C)[C@@H]4CC[C@@]5(C)C[C@]43CC5=O)nn2)cc1 | > 20 µM | > 20 µM | > 20 µM | > 20 µM | > 20 µM
10 | C=C1C[C@]23C[C@@]1(O)CC[C@H]2c1ccc(OS(=O)(=O)c2ccc(C)cc2)c(C)c1[C@@H]3Cn1cc(-c2ccc(Cl)cc2)nn1 | > 20 µM | > 20 µM | > 20 µM | > 20 µM | > 20 µM
11 | Cc1c(O)ccc2c1[C@H](Cn1cc(-c3ccccn3)nn1)[C@@]13CC(=O)[C@@](C)(CC[C@@H]21)C3 | > 20 µM | > 20 µM | > 20 µM | > 20 µM | > 20 µM
12 | C=C1C[C@]23C[C@@]1(O)CC[C@H]2c1ccc(O)c(C)c1[C@@H]3Cn1cc(-c2ccc(OC)cc2)nn1 | > 20 µM | > 20 µM | > 20 µM | > 20 µM | > 20 µM
13 | C=C1C[C@]23C[C@@]1(O)CC[C@H]2c1ccc(OS(=O)(=O)c2ccc(C)cc2)c(C)c1[C@@H]3Cn1cc(-c2ccccn2)nn1 | > 20 µM | > 20 µM | > 20 µM | > 20 µM | > 20 µM
14 | CC(=O)O[C@H]1C(=O)[C@@]2(C)[C@H]([C@H](OC(=O)c3ccccc3)[C@]3(O)C[C@H](OC(=O)[C@H](O)[C@@H](NC(=O)c4ccccc4)c4ccccc4)C(C)=C1C3(C)C)[C@]1(OC(C)=O)CO[C@@H]1C[C@@H]2O [PACLITAXEL] | < 0.008 µM | < 0.008 µM | < 0.008 µM | < 0.008 µM | < 0.008 µM
15 | COc1ccc(-c2cn(C[C@H]3c4c(ccc(OS(=O)(=O)c5ccc(C)cc5)c4C)[C@@H]4CC[C@@]5(C)C[C@]43CC5=O)nn2)cc1 | > 20 µM | > 20 µM | > 20 µM | > 20 µM | > 20 µM
16 | C=C1C[C@]23C[C@@]1(O)CC[C@H]2c1ccc(O)c(C)c1[C@@H]3Cn1cc(-c2ccccc2)nn1 | > 20 µM | > 20 µM | > 20 µM | > 20 µM | > 20 µM
17 | C=C1C[C@]23C[C@@]1(O)CC[C@H]2c1cc(Br)c(O)c(C)c1[C@@H]3Cn1cc(-c2ccc(Cl)cc2)nn1 | 5.59 µM | 19.1 µM | 10.5 µM | 10.2 µM | 18 µM
18 | C=C1C[C@]23C[C@@]1(O)CC[C@@H]2c1cccc(C)c1[C@@H]3Cn1cc(-c2ccc(OC)cc2)nn1 | > 20 µM | > 20 µM | > 20 µM | > 20 µM | > 20 µM
19 | C=C1C[C@]23C[C@@]1(O)CC[C@H]2c1cc(Br)c(O)c(C)c1[C@@H]3Cn1cc(-c2ccccc2)nn1 | > 20 µM | > 20 µM | > 20 µM | > 20 µM | > 20 µM

From ChEMBL document CHEMBL4219271, “Synthesis and anti-proliferative activity of allogibberic acid derivatives containing 1,2,3-triazole pharmacophore” (Bioorg Med Chem Lett, 2018)
